Assay results from the NIST ThermoML archive (doi:10.1021/acs.jced.5b00802).

How the values were obtained:
[1] = refractive index (Na D-line) (dimensionless); xn = mol fraction of the nth substance listed; conditions: 100 kPa, Liquid, Standard Abbe refractometry
[2] = xn = mol fraction of the nth substance listed; conditions: 100 kPa, Liquid; for speed of sound: Frequency=3 MHz, Sing-around technique in a fixed-path interferometer; for mass density: Vibrating tube method

CCCNCCC [dipropylamine] + CN(C)C=O
Conditions	mass density, [2] [kg/m3]	refractive index, [1]	speed of sound, [2] [m/s]
293.15 K, x2 = 0.06	745.894	1.40543	1218.2
293.15 K, x2 = 0.1071	752.141	–	1225
293.15 K, x2 = 0.1556	–	1.40725	–
293.15 K, x2 = 0.156	758.933	–	1232.9
293.15 K, x2 = 0.1975	764.87	–	1239.3
293.15 K, x2 = 0.249	772.54	–	1248.1
293.15 K, x2 = 0.2614	–	1.40952	–
293.15 K, x2 = 0.3099	782.194	–	1259.4
293.15 K, x2 = 0.3463	788.151	1.4114	1266.2
293.15 K, x2 = 0.3985	797.199	1.41266	1276.9
293.15 K, x2 = 0.448	806.192	–	1287.6
293.15 K, x2 = 0.4554	–	1.41402	–
293.15 K, x2 = 0.4974	815.656	–	1299.2
293.15 K, x2 = 0.5487	825.989	1.41645	1312
293.15 K, x2 = 0.6018	–	1.41789	–
293.15 K, x2 = 0.6562	849.651	–	1342.1
293.15 K, x2 = 0.7033	–	1.42079	–
293.15 K, x2 = 0.7514	873.097	–	1373.4
293.15 K, x2 = 0.8216	892.212	1.42444	1399.8
293.15 K, x2 = 0.8501	900.523	–	1411.2
293.15 K, x2 = 0.8844	–	1.42653	–
293.15 K, x2 = 0.9025	916.508	–	1433.3
293.15 K, x2 = 0.9486	931.283	1.42882	1453.4
298.15 K, x2 = 0.0626	741.577	1.40259	1196.9
298.15 K, x2 = 0.1083	747.697	1.40358	1204
298.15 K, x2 = 0.1544	754.025	1.40443	1211.2
298.15 K, x2 = 0.2541	768.732	1.40662	1228.1
298.15 K, x2 = 0.3148	778.293	1.40796	1239.3
298.15 K, x2 = 0.3609	786.012	1.40908	1248.3
298.15 K, x2 = 0.4077	794.223	1.41017	1258.2
298.15 K, x2 = 0.4966	810.8	1.41247	1278.5
298.15 K, x2 = 0.5386	819.199	–	1288.9
298.15 K, x2 = 0.6082	833.997	–	1307.9
298.15 K, x2 = 0.6527	844.084	1.41673	1321.1
298.15 K, x2 = 0.7477	867.448	1.4196	1352.4
298.15 K, x2 = 0.8063	883.226	1.42147	1374
298.15 K, x2 = 0.902	911.457	1.42478	1413.1
298.15 K, x2 = 0.9482	926.367	1.42645	1433.5
303.15 K, x2 = 0.0453	734.885	1.39971	1174
303.15 K, x2 = 0.1034	742.55	1.40091	1183
303.15 K, x2 = 0.1963	755.529	1.40293	1198
303.15 K, x2 = 0.2582	764.775	1.40419	1208.8
303.15 K, x2 = 0.3559	780.614	1.40647	1227.6
303.15 K, x2 = 0.4099	790.03	1.40779	1239
303.15 K, x2 = 0.4565	798.539	–	1249.4
303.15 K, x2 = 0.5415	815.193	–	1270.3
303.15 K, x2 = 0.6016	827.909	1.41295	1286.6
303.15 K, x2 = 0.6517	839.209	–	1301.4
303.15 K, x2 = 0.7502	863.388	1.41745	1334
303.15 K, x2 = 0.8498	890.941	1.4207	1372
303.15 K, x2 = 0.9	906.165	1.42246	1393.2
303.15 K, x2 = 0.9498	922.203	1.42417	1415.2

CCCCN [1-butanamine] + CN(C)C=O
Conditions	mass density, [2] [kg/m3]	refractive index, [1]	speed of sound, [2] [m/s]
293.15 K, x2 = 0.0599	747.39	1.40222	1277.7
293.15 K, x2 = 0.1056	755.445	1.40348	1285
293.15 K, x2 = 0.1591	765.035	1.40498	1293.8
293.15 K, x2 = 0.201	–	1.40619	–
293.15 K, x2 = 0.2505	782.005	1.4076	1309.6
293.15 K, x2 = 0.3017	791.811	1.40911	1318.9
293.15 K, x2 = 0.3583	802.88	1.41079	1329.6
293.15 K, x2 = 0.3992	811.114	1.412	1337.8
293.15 K, x2 = 0.4401	–	1.41322	–
293.15 K, x2 = 0.5059	833.13	1.41521	1359.6
293.15 K, x2 = 0.5483	842.154	–	1368.9
293.15 K, x2 = 0.6043	–	1.41829	–
293.15 K, x2 = 0.6569	866.102	1.41992	1393.7
293.15 K, x2 = 0.6999	875.844	1.42126	1404
293.15 K, x2 = 0.7537	888.314	1.42292	1416.7
293.15 K, x2 = 0.8036	900.101	1.42448	1429
293.15 K, x2 = 0.8579	913.315	1.42618	1442.3
293.15 K, x2 = 0.9048	924.751	1.42763	1453.7
293.15 K, x2 = 0.9546	937.212	1.42915	1465.6
298.15 K, x2 = 0.0575	742.224	1.39946	1255.4
298.15 K, x2 = 0.1092	751.333	1.40093	1263.9
298.15 K, x2 = 0.1519	759.015	1.40215	1271.1
298.15 K, x2 = 0.2043	768.674	1.40367	1280.1
298.15 K, x2 = 0.2448	776.215	1.40485	1287.4
298.15 K, x2 = 0.309	788.51	1.4068	1299.3
298.15 K, x2 = 0.3558	797.705	1.4082	1308.4
298.15 K, x2 = 0.3986	806.285	–	1317
298.15 K, x2 = 0.4381	814.268	–	1324.9
298.15 K, x2 = 0.5028	827.736	1.41274	1338.6
298.15 K, x2 = 0.6005	848.795	1.41578	1360.6
298.15 K, x2 = 0.6608	–	1.41769	–
298.15 K, x2 = 0.6934	869.781	1.41871	1382.5
298.15 K, x2 = 0.7572	884.516	1.42076	1398
298.15 K, x2 = 0.8056	895.958	1.4223	1410
298.15 K, x2 = 0.8546	–	1.42383	–
298.15 K, x2 = 0.9076	920.837	1.42553	1435.1
298.15 K, x2 = 0.9553	932.723	1.42705	1446.6
303.15 K, x2 = 0.0505	736.213	1.39644	1233
303.15 K, x2 = 0.1477	753.539	1.39927	1249.4
303.15 K, x2 = 0.2019	763.466	1.40087	1259
303.15 K, x2 = 0.241	770.708	1.40209	1266
303.15 K, x2 = 0.3024	782.423	1.40392	1277.5
303.15 K, x2 = 0.3558	792.882	1.40552	1287.8
303.15 K, x2 = 0.3992	–	1.40686	–
303.15 K, x2 = 0.4358	808.96	1.40802	1304.1
303.15 K, x2 = 0.5114	824.673	1.41041	1320.3
303.15 K, x2 = 0.5281	828.281	1.41094	1324
303.15 K, x2 = 0.6056	845.104	1.41337	1341.6
303.15 K, x2 = 0.6574	–	1.41502	–
303.15 K, x2 = 0.696	865.473	1.41625	1363.2
303.15 K, x2 = 0.7558	879.286	1.4182	1377.7
303.15 K, x2 = 0.8006	889.962	1.41964	1389
303.15 K, x2 = 0.8544	902.88	1.42138	1402.3
303.15 K, x2 = 0.8998	914.033	1.42282	1413.7
303.15 K, x2 = 0.9466	925.732	1.42431	1425.2
